Laboratory results: patent publication US11400083B2, “CXCR4 antagonists with amino acid skeleton, preparation therefor and biomedical use thereof” (Tsinghua University, priority 2017, dated 2022)
Blank lines part the entries; values can stand above or below the compound they belong to.

Experiments:
CXCR4 [1] = target: T1, CXCR4 (Homo sapiens, UniProt P61073); assay: Inhibition of intracellular calcium mobilization (SupT1 cells, SDF-1α, Fluo-4); type: cell-based; settings: 50 nM SDF-1α
Protocol: 3. Experimental method: the cell line used in this assay was SupT1. Prior to the experiment, the cells were collected and washed with an experimental buffer (an HBSS buffer containing 20 mM HEPES), and then incubated with a buffer containing 4 μM Fluo-4 and 1 mM probenecid sodium for 30 min at 37° C., after which the residual dye was washed away, and the cells were suspended to a concentration of 2×10^6 cells/ml. Afterwards, 200 μl of the cell suspension was taken and added to a black 96-well plate, and absorption values of the cells at 494 nmEX/516 nmEM were recorded. Subsequently, different concentrations of compound were added and mixed uniformly, and the baseline was recorded. Thereafter, 50 nM of the SDF-1α was added and mixed uniformly. Signals of calcium ions were recorded, and the differences in fluorescence intensity between a group without addition of the compound and groups added with different concentrations of the compound were observed. 4.

CXCR4 [2] = target: T1, CXCR4; assay: Inhibition of CXCR4 induced cell migration (SupT1 cells, SDF-1α, transwell); type: cell-based; settings: 2 nM SDF-1α, concentration-dependent, FIG. 1
Protocol: 1. Experimental method: the assay on the CXCR4 induced cell migration was detected using SupT1 cell line which naturally expresses the CXCR4. SupT1 cells cultured and suspended in RPMI 1640 (containing 10% fetal bovine serum, 100 IU penicillin and 0.1 mg/ml streptomycin) were collected and then washed with RPMI 1640 containing 0.5% BSA, after which the cells are counted and suspended to a concentration of 3.0×10^7 cells/ml, and then uniformly mixed with different concentrations of compound. Then, 75 μl of the obtained mixture was taken and added to a tranwell insert, and incubated at 37° C. for 30 min. […] After incubation at 37° C. for 3 hours, the tranwell insert was removed, and 40 μl of CellTiter 96 (Promega) was added to each cell of the lower culture plate. After 1 to 4 hours of incubation, absorption values at 490 nm were detected. The experimental results of each group were obtained by at least three independent experiments, and the inhibition curve was plotted by the GraphPad software. 2.

[3] = Cytotoxicity assay (CellTiter 96, 72 h); type: cell-based; settings: human; HEK293 cells, 72 hours incubation
Protocol: 1. Experimental method: the experiment was carried out using HEK293 cell line. The HEK293 cells cultured in DMEM medium (containing 10% fetal bovine serum, 100 IU penicillin and 0.1 mg/ml streptomycin) were trypsinized, counted, and plated in a 96-well plate with each well containing 100 μl suspension and including 3×10^3 cells in total. After culturation in a constant-temperature incubator containing 5% CO2 at 37° C. overnight, different concentrations of the compound were added. After 72 hours of incubation in total, 20 μl CellTiter 96 was added to further incubate for 1 to 4 hours, and then an absorption value at 490 nm was measured on a microplate reader. The changes in cell viability prior to and subsequent to the addition of the compound were observed by comparing the values of the blank control group and the experimental group. 2.

CXCR4 [4] = target: T1, CXCR4; assay: Binding affinity assay on CXCR4 receptor protein (inhibition of 12G5 monoclonal antibody binding, CHO cells stably transfected with CXCR4); set-up: expressed in transfected cells; host or cells: CHO cells, stably transfected (G418 selection); settings: 40 min; 0.1 μM compound; inhibition of 12G5 antibody binding to CXCR4 on CHO-CXCR4 cells; read-out: Inhibition ratio interval of compounds at 0.1 μM
Protocol: 3. Experimental method: the cell line used for the affinity activity assay of the CXCR4 was a CHO cell line constructed in vitro and stably transfected with CXCR4. The CHO cell line cultured in DMEM medium (containing 10% fetal bovine serum, 100 IU penicillin, 0.1 mg/ml streptomycin and 0.2 mg/ml G418) was trypsinized, washed, counted, and then suspended in an FACS buffer (PBS containing 0.5% BSA and 0.05% NaN3), followed by being plated in a 96-well plate. Each cell contains 100 μl of the reaction system, which includes 5×10^5 cells, 250 ng/ml 12G5 monoclonal antibody and different concentrations of compound for detection. After incubated on ice for 40 min and washed with the FACS buffer, the reaction system was added with the secondary antibody (anti-mouse FITC-labeled IgG) for further incubation on ice for 30 min and then washed twice with the FACS buffer. Absorption values at 485 nmEX/535 nmEM were measured on a microplate reader (PerkinElmer), and fluorescence intensities were recorded. For each compound, a percentage of the compound that inhibits the binding of the 12G5 monoclonal antibody to the receptor CXCR4, i.e. a binding inhibition ratio at 0.1 μM, was calculated. 4. […] The inhibition ratio of the compounds is divided into the following intervals: 75% to 100% for A, 50% to 74% for B, 25% to 49% for C, and 0 to 24% for D.

T1 sequence (P61073 whole entry): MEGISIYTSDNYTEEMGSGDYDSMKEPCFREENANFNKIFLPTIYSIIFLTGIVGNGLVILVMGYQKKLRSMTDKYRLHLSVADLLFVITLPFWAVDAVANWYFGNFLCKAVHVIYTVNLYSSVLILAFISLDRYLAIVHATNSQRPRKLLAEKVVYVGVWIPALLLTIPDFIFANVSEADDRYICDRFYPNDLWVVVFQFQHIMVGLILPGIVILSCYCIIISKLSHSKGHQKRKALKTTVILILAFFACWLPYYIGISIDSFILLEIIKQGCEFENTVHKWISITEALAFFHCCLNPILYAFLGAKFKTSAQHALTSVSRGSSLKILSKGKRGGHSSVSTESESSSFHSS

Structure (SMILES): c1cc(CN2CCCNCCNCCCNCC2)ccc1CN1CCCNCCNCCCNCC1 [AMD3100, plerixafor, reference compound]
- Inhibition of signal of calcium mobilization (CXCR4 [1]; compound at 1.0 μM, FIG. 3): fails to inhibit

Structure (SMILES): N=C(N)NCCC[C@H](NC(=O)c1ccc(F)cc1)C(=O)NCc1ccc(CNCCCNC2CCCCC2)cc1 [Compound 2]
- IC50 at 72 h [3]: > 50 µM
- inhibition at 0.1 µM (CXCR4 [4]): 50 to 74%

Structure (SMILES): N=C(N)NCCC[C@H](NCc1ccccn1)C(=O)NCc1ccccc1 [Compound 3]
- inhibition at 0.1 µM (CXCR4 [4]): 0 to 24%

Structure (SMILES): N=C(N)NCCC[C@H](N)C(=O)NCc1ccc(CNCCCNC2CCCCC2)cc1 [Compound 5]
- IC50 at 72 h [3]: > 50 µM
- inhibition at 0.1 µM (CXCR4 [4]): 25 to 49%

Structure (SMILES): N=C(N)NCCC[C@H](NC(=O)C1CCC(F)(F)CC1)C(=O)NCc1ccc(CNCCCNC2CCCCC2)cc1 [Compound 7]
- IC50 at 72 h [3]: > 50 µM
- inhibition at 0.1 µM (CXCR4 [4]): 50 to 74%

Structure (SMILES): N=C(N)NCCC[C@H](NCc1ccc(F)cc1)C(=O)NCc1ccc(CNCCCNC2CCCCC2)cc1 [Compound 8]
- IC50 at 72 h [3]: > 50 µM
- inhibition at 0.1 µM (CXCR4 [4]): 50 to 74%

Structure (SMILES): CN(C)c1ccc(CN[C@@H](CCCNC(=N)N)C(=O)NCc2ccc(CNCCCNC3CCCCC3)cc2)cc1 [Compound 9]
- IC50 at 72 h [3]: > 50 µM
- inhibition at 0.1 µM (CXCR4 [4]): 75 to 100%

Structure (SMILES): N=C(N)NCCC[C@H](NCc1cccc2ccccc12)C(=O)NCc1ccc(CNCCCNC2CCCCC2)cc1 [Compound 10]
- IC50 at 72 h [3]: > 50 µM
- inhibition at 0.1 µM (CXCR4 [4]): 50 to 74%

Structure (SMILES): N=C(N)NCCC[C@H](NCc1ccc(-c2ccccc2)cc1)C(=O)NCc1ccc(CNCCCNC2CCCCC2)cc1 [Compound 11]
- IC50 at 72 h [3]: > 50 µM
- inhibition at 0.1 µM (CXCR4 [4]): 50 to 74%

Structure (SMILES): N=C(N)NCCC[C@H](NCc1cc(C(F)(F)F)cc(C(F)(F)F)c1)C(=O)NCc1ccc(CNCCCNC2CCCCC2)cc1 [Compound 12]
- IC50 at 72 h [3]: > 50 µM
- inhibition at 0.1 µM (CXCR4 [4]): 0 to 24%

Structure (SMILES): N=C(N)NCCC[C@H](NCc1ncc[nH]1)C(=O)NCc1ccc(CNCCCNC2CCCCC2)cc1 [Compound 13]
- IC50 at 72 h [3]: > 50 µM
- inhibition at 0.1 µM (CXCR4 [4]): 50 to 74%

Structure (SMILES): N=C(N)NCCC[C@H](NC1CCCc2cccnc21)C(=O)NCc1ccc(CNCCCNC2CCCCC2)cc1 (some centres unmarked) [Compound 14]
- inhibition at 0.1 µM (CXCR4 [4]): 0 to 24%

Structure (SMILES): N=C(N)NCCC[C@H](NC1CCCCC1)C(=O)NCc1ccc(CNCCCNC2CCCCC2)cc1 [Compound 15]
- IC50 at 72 h [3]: > 20 µM
- inhibition at 0.1 µM (CXCR4 [4]): 50 to 74%

Structure (SMILES): N=C(N)NCCC[C@H](NCC1CCCCC1)C(=O)NCc1ccc(CNCCCNC2CCCCC2)cc1 [Compound 16]
- IC50 at 72 h [3]: > 50 µM
- inhibition at 0.1 µM (CXCR4 [4]): 75 to 100%

Structure (SMILES): O=C(NCc1ccc(CNCCCNC2CCCCC2)cc1)[C@H](Cc1ccc2ccccc2c1)NCc1ccccn1 [Compound 25]
- IC50 at 72 h [3]: > 10 µM
- inhibition at 0.1 µM (CXCR4 [4]): 50 to 74%

Structure (SMILES): O=C(NCc1ccc(CNCCCNC2CCCCC2)cc1)[C@H](Cc1c[nH]c2ccccc12)NCc1ccccn1 [Compound 26]
- IC50 at 72 h [3]: > 50 µM
- inhibition at 0.1 µM (CXCR4 [4]): 75 to 100%

Structure (SMILES): O=C(NCc1ccc(CNCCCNC2CCCCC2)cc1)[C@H](Cc1ccc(O)cc1)NCc1ccccn1 [Compound 27]
- IC50 at 72 h [3]: > 50 µM
- inhibition at 0.1 µM (CXCR4 [4]): 50 to 74%

Structure (SMILES): O=C(NCc1ccc(CNCCCNC2CCCCC2)cc1)[C@@H]1CCCN1Cc1ccccn1 [Compound 29]
- IC50 at 72 h [3]: > 50 µM
- inhibition at 0.1 µM (CXCR4 [4]): 75 to 100%

Structure (SMILES): O=C(NCc1ccc(CNCCCNC2CCCCC2)cc1)[C@@H]1Cc2ccccc2CN1Cc1ccccn1 [Compound 30]
- IC50 at 72 h [3]: > 20 µM
- inhibition at 0.1 µM (CXCR4 [4]): 75 to 100%

Structure (SMILES): N=C(N)NCCC[C@H](NC(=O)[C@@H](N)Cc1ccc(O)cc1)C(=O)NCc1ccc(CNCCCNC2CCCCC2)cc1 [Compound 31]
- IC50 at 72 h [3]: > 50 µM
- inhibition at 0.1 µM (CXCR4 [4]): 75 to 100%

Structure (SMILES): N=C(N)NCCC[C@H](N)C(=O)N[C@@H](Cc1ccc2ccccc2c1)C(=O)NCc1ccc(CNCCCNC2CCCCC2)cc1 [Compound 32]
- IC50 at 72 h [3]: > 50 µM
- inhibition at 0.1 µM (CXCR4 [4]): 75 to 100%

Further lines, with some results ahead:

- Inhibition of CXCR4 induced cell migration (CXCR4 [2]): significant inhibiting ability
- inhibition at 0.1 µM (CXCR4 [4]): 75 to 100%
- Inhibition of signal of calcium mobilization (CXCR4 [1]; compound at 0.2 μM, FIG. 2): completely inhibit
Structure (SMILES): N=C(N)NCCC[C@H](NCc1ccccn1)C(=O)NCc1ccc(CNCCCNC2CCCCC2)cc1 [Compound 1]
- IC50 at 72 h [3]: > 50 µM

- inhibition at 0.1 µM (CXCR4 [4]): 0 to 24%
Structure (SMILES): N=C(N)NCCC[C@H](NCc1ccccn1)C(=O)NCc1ccc(CNC2CCCCC2)cc1 [Compound 4]
- IC50 at 72 h [3]: > 50 µM

- inhibition at 0.1 µM (CXCR4 [4]): 50 to 74%
Structure (SMILES): N=C(N)NCCC[C@@H](NCc1ccccn1)C(=O)NCc1ccc(CNCCCNC2CCCCC2)cc1 [Compound 6]
- IC50 at 72 h [3]: > 50 µM

- inhibition at 0.1 µM (CXCR4 [4]): 75 to 100%
Structure (SMILES): NCCCC[C@H](NCc1ccccn1)C(=O)NCc1ccc(CNCCCNC2CCCCC2)cc1 [Compound 17]
- IC50 at 72 h [3]: > 50 µM

- inhibition at 0.1 µM (CXCR4 [4]): 75 to 100%
Structure (SMILES): CC(C)NCCCC[C@H](NCc1ccccn1)C(=O)NCc1ccc(CNCCCNC2CCCCC2)cc1 [Compound 18]
- IC50 at 72 h [3]: > 50 µM

- inhibition at 0.1 µM (CXCR4 [4]): 75 to 100%
Structure (SMILES): O=C(NCc1ccc(CNCCCNC2CCCCC2)cc1)[C@H](CCCCNC1CCCCC1)NCc1ccccn1 [Compound 19]
- IC50 at 72 h [3]: > 50 µM

- inhibition at 0.1 µM (CXCR4 [4]): 50 to 74%
Structure (SMILES): O=C(NCc1ccc(CNCCCNC2CCCCC2)cc1)[C@H](CCCNC1CCCCC1)NCc1ccccn1 [Compound 20]
- IC50 at 72 h [3]: > 50 µM

- inhibition at 0.1 µM (CXCR4 [4]): 75 to 100%
Structure (SMILES): O=C(NCc1ccc(CNCCCNC2CCCCC2)cc1)[C@H](Cc1c[nH]cn1)NCc1ccccn1 [Compound 21]
- IC50 at 72 h [3]: > 50 µM

- inhibition at 0.1 µM (CXCR4 [4]): 50 to 74%
Structure (SMILES): O=C(O)C[C@H](NCc1ccccn1)C(=O)NCc1ccc(CNCCCNC2CCCCC2)cc1 [Compound 22]
- IC50 at 72 h [3]: > 50 µM

- inhibition at 0.1 µM (CXCR4 [4]): 75 to 100%
Structure (SMILES): C[C@H](NCc1ccccn1)C(=O)NCc1ccc(CNCCCNC2CCCCC2)cc1 [Compound 23]
- IC50 at 72 h [3]: > 50 µM

- inhibition at 0.1 µM (CXCR4 [4]): 75 to 100%
Structure (SMILES): O=C(NCc1ccc(CNCCCNC2CCCCC2)cc1)[C@H](CO)NCc1ccccn1 [Compound 24]
- IC50 at 72 h [3]: > 50 µM

- inhibition at 0.1 µM (CXCR4 [4]): 25 to 49%
Structure (SMILES): CC(C)C[C@H](NCc1ccccn1)C(=O)NCc1ccc(CNCCCNC2CCCCC2)cc1 [Compound 28]
- IC50 at 72 h [3]: > 50 µM
